Assay results published in ChEMBL document CHEMBL1201862, “PubChem BioAssay data set” (2004).
Calls of active or inactive are those of the source.

Assays:
[1] = inhibitors of HIV Env-driven cell fusion, dose response, cherry-pick (AID 652057); assay type: functional, cell-based
[2] = ZM109 Env clade C HIV-1 fusion inhibitors, dose response, HeLa effector, CEM target cells, luciferase, cherry-pick (AID 652058); assay type: functional, cell-based
[3] = inhibitors of clade B AD8 Env fusion, dose response, cell-based, cherry-pick (AID 652062); assay type: functional;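 further: luciferase signal from cell-cell fusion driven by HIV-1 clade B AD8 Env; potency is for inhibitors of fusion seen as a drop in luminescence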
[4] = target: Cytochrome P450 3A4 (Homo sapiens, UniProt P08684); conditions: Potency;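 further: confirmatory qHTS run detecting inhibitors and substrates of CYP3A4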
[5] = Luminescence Cell-Based Dose Response HTS to Identify Activators of Luciferase Translation or Activity in H4 […] Cells. [Related pubchem assays: 1829 (Project Summary), 1814 (Primary HTS)]; assay type: functional
[6] = tested on: H4; experiment: Luminescence Cell-Based Dose Response HTS to Identify Activators of 5'UTR Stem-Loop Driven Prion Protein mRNA Translation in H4 Neuroglioblastoma Cells. [Related pubchem assays: 1829 (Project Summary), 1814 (Primary HTS)]; assay type: functional; conditions: Homo sapiens
[7] = Luminescence Cell-Based Dose Confirmation HTS to Identify Activators of 5'UTR Stem-Loop Driven Alpha-Synuclein mRNA Translation in H4 Neuroglioblastoma Cells. [Related pubchem assays: 1829 (Project Summary), 1814 (Primary HTS)]; assay type: functional
[8] = target: T1, Calpain-2 catalytic subunit (Sus scrofa, UniProt P43367); experiment: pig calpain II inhibitor potency, dose response, biochemical, fluorogenic peptide substrate (AID 1420); assay type: functional
T1 sequence (P43367 whole entry): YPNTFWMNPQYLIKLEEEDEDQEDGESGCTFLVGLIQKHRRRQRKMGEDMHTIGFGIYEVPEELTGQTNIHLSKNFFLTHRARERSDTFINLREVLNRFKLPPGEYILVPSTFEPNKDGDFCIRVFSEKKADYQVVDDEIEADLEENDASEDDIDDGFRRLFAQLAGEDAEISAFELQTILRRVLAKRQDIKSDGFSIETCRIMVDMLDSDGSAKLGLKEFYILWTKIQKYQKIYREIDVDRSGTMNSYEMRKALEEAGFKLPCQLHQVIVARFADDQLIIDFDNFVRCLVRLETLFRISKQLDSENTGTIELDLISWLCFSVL

[9] = HEp-2 cell cytotoxicity, dose response, cytotoxicity control for RSV inhibitor project, HTS (AID 2410); assay type: functional; conditions: human respiratory syncytial virus
[10] = control 3'UTR Renilla luciferase suppression, dose response, counter-screen for Shn3 inhibitor project, cell-based, Clone20-Shn3RL, cherry-picked (AID 624133); assay type: functional
[11] = HepG2 cell cytotoxicity, dose response, cytotoxicity control for Shn3 inhibitor project, CellTiter-Glo, cherry-picked (AID 624134); assay type: functional, cell-based
[12] = Shn3 3'UTR reporter inhibitors, dose response, cell-based, Clone20 osteoblasts, firefly luciferase, cherry-picked (AID 624132); assay type: functional;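 further: firefly luciferase luminescence from reporter carrying the Shn3 3'UTR in osteoblasts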
[13] = target: Induced myeloid leukemia cell differentiation protein Mcl-1 (Homo sapiens, UniProt Q07820); assay type: functional
[14] = target: T2, Zinc finger protein mex-5 (Caenorhabditis elegans, UniProt Q9XUB2); experiment: MEX-5/TCR-2 RNA interaction inhibitors, dose response, biochemical, C. elegans, fluorescence polarization (AID 1960)
T2 sequence (Q9XUB2 whole entry): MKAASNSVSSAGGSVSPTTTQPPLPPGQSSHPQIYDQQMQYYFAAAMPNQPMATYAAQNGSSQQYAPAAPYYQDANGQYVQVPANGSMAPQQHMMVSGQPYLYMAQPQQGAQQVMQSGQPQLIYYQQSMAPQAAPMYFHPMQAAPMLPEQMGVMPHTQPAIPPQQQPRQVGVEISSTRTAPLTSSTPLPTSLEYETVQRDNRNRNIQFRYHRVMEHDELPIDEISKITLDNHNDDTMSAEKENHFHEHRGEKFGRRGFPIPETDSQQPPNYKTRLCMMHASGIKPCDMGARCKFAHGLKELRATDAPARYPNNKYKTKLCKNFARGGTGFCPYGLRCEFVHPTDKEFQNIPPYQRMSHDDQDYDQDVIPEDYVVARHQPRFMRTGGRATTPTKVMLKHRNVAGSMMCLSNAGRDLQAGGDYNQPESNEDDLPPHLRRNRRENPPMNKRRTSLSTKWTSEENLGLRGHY

[15] = target: T3, RNA-binding protein pos-1 (Caenorhabditis elegans, UniProt G5EF15); experiment: inhibitors of POS-1/mex-3 RNA binding, dose response, biochemical, fluorescence polarization (AID 1964);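 further: purified POS-1 fused to maltose binding protein made in E. coli; potency of compounds blocking POS-1 binding to fluorescent RNA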
T3 sequence (G5EF15 whole entry): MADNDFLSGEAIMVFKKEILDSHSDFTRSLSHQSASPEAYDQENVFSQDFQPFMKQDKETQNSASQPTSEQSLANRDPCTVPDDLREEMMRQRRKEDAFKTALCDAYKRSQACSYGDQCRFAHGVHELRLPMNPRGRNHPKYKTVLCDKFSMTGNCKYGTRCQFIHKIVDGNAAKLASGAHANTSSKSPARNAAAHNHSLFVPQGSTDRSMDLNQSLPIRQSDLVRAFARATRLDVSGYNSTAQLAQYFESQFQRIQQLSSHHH

[16] = cytotoxicity in OVCAR8 ovarian cancer cells, dose response, PAX8 project, cell-based, plate reader, dry powder samples (AID 743197); assay type: functional; conditions: OVCAR-8
[17] = target: Paired box protein Pax-8 (Homo sapiens, UniProt Q06710); experiment: inhibitors of PAX8-driven TPO luciferase reporter, dose response, RMG-I cells, cherry-pick (AID 687027); assay type: functional, cell-based;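 further: luciferase reporter driven by Pax8 target thyroperoxidase promoter measured by SteadyGlo luminescence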
[18] = tested on: Streptococcus sp. 'group A'; experiment: growth inhibition of control SK(-) GAS strain, dose response, counter-screen for streptokinase expression inhibitor project, luminescence, kanamycin, BacTiterGlo, confirmation (AID 1900); assay type: functional, organism-based
[19] = tested on: Streptococcus; experiment: Group A Streptococcus viability loss, dose response, counter-screen for streptokinase expression inhibitor project, luminescence, BacTiterGlo (AID 1915); assay type: functional, organism-based;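 further: potency for reduction of bacterial viability or growth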
[20] = target: T4, Streptokinase A (Streptococcus pyogenes serotype M1, UniProt P10520); experiment: S. pyogenes streptokinase expression inhibitors, potency, dose response, plasminogen activation absorbance, OD405 (AID 1914); assay type: functional, Streptococcus pyogenes M1 GAS;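 further: secreted streptokinase activity via plasminogen activation per viability signal from cell pellet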
T4 sequence (P10520 whole entry): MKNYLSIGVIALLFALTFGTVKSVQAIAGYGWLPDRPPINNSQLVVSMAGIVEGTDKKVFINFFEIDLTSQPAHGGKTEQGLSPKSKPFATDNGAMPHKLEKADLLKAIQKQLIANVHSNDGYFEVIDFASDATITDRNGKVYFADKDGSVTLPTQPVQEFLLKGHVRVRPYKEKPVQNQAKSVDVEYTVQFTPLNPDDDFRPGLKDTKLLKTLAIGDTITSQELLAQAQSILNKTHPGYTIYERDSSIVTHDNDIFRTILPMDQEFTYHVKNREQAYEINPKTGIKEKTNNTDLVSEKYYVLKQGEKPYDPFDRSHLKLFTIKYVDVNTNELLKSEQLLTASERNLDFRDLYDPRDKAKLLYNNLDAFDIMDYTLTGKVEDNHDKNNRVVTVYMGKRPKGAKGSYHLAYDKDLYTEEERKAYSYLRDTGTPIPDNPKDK

[21] = target: T5, Carboxy-terminal domain RNA polymerase II polypeptide A small phosphatase 1 (Homo sapiens, UniProt Q9GZU7); experiment: inhibitors of CTDSP1, concentration-response testing, biochemical assay, absorbance-based, actives from ultra-high-throughput screening (AID 540297); assay type: functional
T5 sequence (Q9GZU7 whole entry): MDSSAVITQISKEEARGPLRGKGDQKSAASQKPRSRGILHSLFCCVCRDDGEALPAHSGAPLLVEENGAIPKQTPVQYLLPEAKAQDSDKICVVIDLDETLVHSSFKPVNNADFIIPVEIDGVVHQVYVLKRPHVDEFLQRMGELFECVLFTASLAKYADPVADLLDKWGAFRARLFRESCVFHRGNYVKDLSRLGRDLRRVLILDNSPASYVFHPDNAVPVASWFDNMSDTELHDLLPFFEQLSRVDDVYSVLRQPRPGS

Sequence of Induced myeloid leukemia cell differentiation protein Mcl-1 (Q07820 whole entry): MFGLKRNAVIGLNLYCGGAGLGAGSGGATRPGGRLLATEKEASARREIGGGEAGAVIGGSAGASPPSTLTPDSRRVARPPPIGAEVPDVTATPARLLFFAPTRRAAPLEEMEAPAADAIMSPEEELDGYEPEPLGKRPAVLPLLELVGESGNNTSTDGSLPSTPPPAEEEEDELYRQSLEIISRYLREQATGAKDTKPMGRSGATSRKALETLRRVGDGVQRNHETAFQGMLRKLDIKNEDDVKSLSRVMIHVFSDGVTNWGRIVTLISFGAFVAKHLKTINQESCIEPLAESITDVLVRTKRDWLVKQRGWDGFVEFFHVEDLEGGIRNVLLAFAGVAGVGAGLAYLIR
Sequence of Cytochrome P450 3A4 (P08684 whole entry): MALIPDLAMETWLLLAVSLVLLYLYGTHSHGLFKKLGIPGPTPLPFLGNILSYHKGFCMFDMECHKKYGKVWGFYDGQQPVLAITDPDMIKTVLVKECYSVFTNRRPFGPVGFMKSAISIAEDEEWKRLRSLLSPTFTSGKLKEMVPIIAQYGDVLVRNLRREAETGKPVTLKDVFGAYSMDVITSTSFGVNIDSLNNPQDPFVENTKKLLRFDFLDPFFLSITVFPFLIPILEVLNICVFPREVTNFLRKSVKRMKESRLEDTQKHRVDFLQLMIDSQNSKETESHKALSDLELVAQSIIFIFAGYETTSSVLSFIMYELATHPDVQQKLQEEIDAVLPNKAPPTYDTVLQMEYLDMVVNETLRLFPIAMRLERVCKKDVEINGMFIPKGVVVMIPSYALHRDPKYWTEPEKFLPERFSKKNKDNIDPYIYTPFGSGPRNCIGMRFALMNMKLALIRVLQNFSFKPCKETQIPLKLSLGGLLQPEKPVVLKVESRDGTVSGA
Sequence of Paired box protein Pax-8 (Q06710 whole entry): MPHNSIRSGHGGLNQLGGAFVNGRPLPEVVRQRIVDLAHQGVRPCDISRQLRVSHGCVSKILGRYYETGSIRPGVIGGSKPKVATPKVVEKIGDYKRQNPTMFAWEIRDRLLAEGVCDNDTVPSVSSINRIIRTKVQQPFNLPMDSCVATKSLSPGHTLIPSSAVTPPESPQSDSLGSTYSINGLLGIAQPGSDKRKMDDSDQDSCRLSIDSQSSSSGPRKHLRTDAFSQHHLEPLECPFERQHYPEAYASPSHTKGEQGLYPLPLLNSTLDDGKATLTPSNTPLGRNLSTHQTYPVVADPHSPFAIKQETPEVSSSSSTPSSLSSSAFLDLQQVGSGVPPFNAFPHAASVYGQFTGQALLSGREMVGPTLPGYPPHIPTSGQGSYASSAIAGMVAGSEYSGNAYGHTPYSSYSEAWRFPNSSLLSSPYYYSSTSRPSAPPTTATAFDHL

C[C@H]1CN([C@@H](C)CO)C(=O)c2cc(NC(=O)Nc3ccc4c(c3)OCO4)ccc2O[C@H]1CN(C)S(=O)(=O)c1cccs1
AC50 [1]: 6.19 µM (active) | AC50 [2]: 24.7 µM (active) | AC50 [3]: 29.3 µM (active)

CC(=O)OC1CC2C(C)(C)C(O)C=C[C@@]2(C)C2CC[C@@]3(C)C(c4ccoc4)OC(=O)C4OC43[C@]12C (stereo partly specified)
AC50 [4]: 12.6 µM (inconclusive)

C=C(C)C(O)/C=C/C=C/c1ccccc1 (stereo unspecified)
AC50 [4]: 3.98 µM (inconclusive)

CC(C)CC1(C(=O)NCc2ccccn2)C=CCN1C(=O)c1ccccc1 (stereo unspecified)
AC50 [4]: 15.8 µM (inconclusive)

Cc1sc2c(c1C)CN(Cc1ccncc1)CN2C(=O)c1ccco1
EC50 [5]: 11 µM (active) | EC50 [6]: > 60 µM (not active) | EC50 [7]: > 120 µM (not active)

O=C(O)CC(NC(=O)C1c2ccccc2Oc2ccccc21)c1ccc(OC2CCCC2)cc1 (stereo unspecified)
IC50 [8]: 6.06 µM (not active)

COc1ccc(NC(=O)C2C(=O)N(CCO)C3(C)CC2c2ccccc2O3)cc1 (stereo unspecified)
EC50 [5]: 14.8 µM (active) | EC50 [6]: 10.2 µM (active) | EC50 [7]: 7.35 µM (active)

CCOC(=O)c1c(C)[nH]c(C(=O)COC(=O)C23CC4CC(CC(Cl)(C4)C2)C3)c1C
CC50 [9]: > 50 µM (active) | IC50 [8]: 4.08 µM (not active)

Cn1nc(-c2ccc(OCC(=O)N3CCN(Cc4ccccc4)CC3)cc2)c2ccccc2c1=O
AC50 [10]: 4.74 µM (active) | AC50 [11]: 32.4 µM (active) | AC50 [12]: 2.1 µM (active) | AC50 [2]: 27.4 µM (active) | AC50 [3]: 23.5 µM (active)

COc1cccc(S(=O)(=O)N(C)C[C@H]2Oc3cc(C4=CCCC4)ccc3S(=O)(=O)N([C@H](C)CO)C[C@@H]2C)c1
AC50 [1]: 34.2 µM (active)

O=C1/C(=C\Nc2ccc(OC(F)(F)F)cc2)CCN1c1ncccn1
EC50 [5]: 23.7 µM (active) | EC50 [6]: 14.6 µM (active) | EC50 [7]: 20.4 µM (active)

Cc1cccc(OCCCC(=O)Nc2ccc(N(C)C)cc2)c1
IC50 [13]: < 0.4 µM (active)

N=C1C=CC(=C(c2cccc(N)c2)c2cccc(N)c2)C=C1
AC50 [4]: 5.01 µM (active)

CC(=O)c1c(C(C)=O)c(C)n(C(c2ccccc2)c2ccccc2)c1C
IC50 [8]: > 50 µM (not active)

Cc1cc(C(=O)O)ccc1-n1c(C)cc(/C=C(/C#N)C(=O)Nc2ccccc2)c1C
EC50 [14]: > 300 µM (not active) | EC50 [15]: > 300 µM (not active) | IC50 [8]: 12.6 µM (not active)

C[C@@H]1CN([C@@H](C)CO)C(=O)c2cc(NC(=O)Nc3ccc(C(F)(F)F)cc3)ccc2O[C@@H](C)CCCCO[C@@H]1CN(C)Cc1ccccc1
AC50 [16]: > 60 µM (inactive) | AC50 [17]: 9.49 µM (active)

COC(=O)c1cccc(NC(=O)c2cccc(OC)c2)c1
IC50 [8]: 14.6 µM (not active)

CC1CCN(C(c2ccc(N(C)C)cc2)c2nnnn2C(C)(C)C)CC1 (stereo unspecified)
IC50 [13]: > 54 µM (active)

O=C(Nc1ccccc1C(=O)O)c1cccc(NC(=O)c2ccc(Br)o2)c1
EC50 [18]: 6.27 µM (active) | EC50 [19]: 9.37 µM (active) | EC50 [20]: 6.41 µM (active) | IC50 [8]: 12.1 µM (not active)

COc1cccc(O)c1O [3-METHOXYCATECHOL]
AC50 [4]: 20 µM (inconclusive)

CC(=O)OC1CCC2(C)C3=C(CCC2C1(C)C)[C@]1(C)CCC(C(C)CCC=C(C)C)[C@]1(C)CC3 (stereo partly specified)
AC50 [4]: 31.6 µM (inconclusive)

C[C@H]1CN([C@@H](C)CO)C(=O)c2c(c3ccccc3n2C)-c2ccccc2CO[C@H]1CN(C)C(=O)Cc1ccccc1
AC50 [1]: < 0.26 µM (active) | AC50 [2]: < 0.26 µM (active) | AC50 [3]: < 0.26 µM (active)

Cc1ccc(Oc2cnn(-c3ccccc3)c(=O)c2Br)cc1
EC50 [5]: 27 µM (active) | EC50 [6]: 30.7 µM (active) | EC50 [7]: > 120 µM (not active)

CCOc1ccccc1NC(=O)/C=C/C(N)=O
IC50 [13]: 1.1 µM (not active)

C=CC(C1=CC(=O)C=CC1=O)c1ccccc1 (stereo unspecified) [DALBERGIONE]
AC50 [4]: 31.6 µM (inconclusive)

O=C(N/N=C/c1ccc(-c2ccccc2C(=O)O)o1)c1cccs1
IC50 [13]: 5.27 µM (active) | IC50 [21]: 4.6 µM (active)

O=C1NC(=S)N/C1=C/c1cccc2ccccc12
EC50 [5]: 8.63 µM (active) | EC50 [6]: > 120 µM (not active) | EC50 [7]: 17.7 µM (active)

CN1C(=O)/C(=C2/C(=O)Nc3ccccc32)S/C1=N\c1ccc(Cl)cc1
EC50 [5]: 46.1 µM (active) | EC50 [6]: 32.3 µM (active) | EC50 [7]: 12.7 µM (active)
